Measurements as given in article PMC6337126, “Thiophene Derivatives as Anticancer Agents and Their Delivery to Tumor Cells Using Albumin Nanoparticles” (Molecules, 2019).
Converted amounts (≈) assume the structure as drawn. “And” between values parts separate entries of the source, which are not always exact repeats. Equal entries are not always repeated. Where two headings read alike, the source gives them in different places.

Assays:
SMMC-7721 [1] = assay: MTT screening assay of TPs; assay type: cell-based
Method: (§1) HepG2 and SMMC-7721 cell lines were cultured and grown in complete DMEM containing 10% FBS and 1% streptomycin and penicillin in 5% CO2 at 37 °C. TPs were fabricated using the method as described previously. The cytotoxicity of TPs in HepG2 and SMMC-7721 cell in vitro was evaluated by MTT assay. Firstly, cells with a density of 8 × 10^4 cells per wells were placed and cultured in 96-well plates and incubated 24 h at 37 °C. Then, 100 μL of TPs DMEM solution (30 μg/mL) was added into each well. After incubated 24 h, 10 μL of MTT solution (5.0 mg/mL) was added and incubated 4 h. Finally, the medium was removed, 100 μL of DMSO was added and OD values were tested using microplate reader (Synergy4, multi-mode microplate reader, BioTek, Winooski, VT, USA) at 490 nm when the formazan precipitate was completely dissolved. It is worth noting that wells containing normal medium without TPs were regarded as controls. In addition, wells which add the medium with paclitaxel were regarded as a positive control.

HepG2 [2] = assay: MTT screening assay of TPs; assay type: cell-based
Method: as §1

[3] = Solubility of TP 5 in solvents by HPLC; assay type: physicochemical
Method: (§2) In order to investigate the solubility and stability of TP 5, a certain amount of TP 5 was dissolved in several solvents (deionized water, PBS buffered solution pH 7.4, ethanol, ethyl acetate, and dichloromethane) and make it saturate. The solubility was measured by HPLC. In addition, for the stability of TP 5, 200.0 μg/mL of TP 5 was placed in different temperature (25.0, 40.0 and 60.0) and the concentration was detected and compared with practical concentration.

[4] = Stability of TP 5 at different temperatures by HPLC; assay type: physicochemical; conditions: for Detected Concentration: calculated concentration 200.0 μg/mL, single replicates
Method: as §2

[5] = In vitro drug release by dialysis method; assay type: physicochemical; conditions: over 120 h, PBS containing 20.0% ethanol, 37 °C
Method: The detailed process was as follows: first, TP 5 and TP 5-NPs were all dissolved or dispersed in 1.0 mL PBS (pH 7.4), respectively. Then, they were placed in a dialysis bag (the molecule weight cutoff was 12.0 kD). After that, they were placed in 50.0 mL release medium PBS containing 20.0% v/v ethanol and maintained at 37 °C with continuous stirring at 150 rpm. Sink conditions were maintained. At predetermined time intervals, 1.0 mL release medium was withdrawn and replaced with 1.0 mL 37 °C fresh release medium. Finally, the released capacity of TP 5 was detected by HPLC.

SMMC-7721 [6] = assay: ROS assay (DCFH-DA); assay type: cell-based; conditions: SMMC-7721, 30.0 μg/mL, 12 h
Method: (§3) The experimental procedure was similar to the part 4.2.8. Similarly, HepG2 and SMMC-7721 cell were seeded in a 12-well plate and incubated for 24 h. 30.0 μg/mL of TP 5-NPs or TP 5 was added and cultured for another 12 h. After that, 10 μM 2′, 7′-dichlorodihydrofluorescein diacetate (DCFH-DA, Sigma-Aldrich, Saint Louis, MO, USA) was added and incubated for 10.0 min in the dark. Inversed fluorescent microscope was applied to observe fluorescence images.

HepG2 [7] = assay: ROS assay (DCFH-DA); assay type: cell-based; conditions: HepG2, 30.0 μg/mL, 12 h
Method: as §3

SMMC-7721 [8] = assay: Cytotoxicity of TP 5-NPs in vitro (MTT); assay type: cell-based
Method: (§4) The cytotoxicity of TP 5-NPs in two cell lines in vitro was assessed. Briefly, cells with a density of 8 × 10^4 cells per wells were placed and cultured in 96-well plates. After incubated 24 h at 37 °C, 100 μL of medium containing different concentrations of TP 5-NPs or TP 5 (10.0, 20.0, 30.0, 40.0 and 50.0 μg/mL) was added to each well and cultured another 24, 48 or 72 h at 37 °C (wells containing the normal medium without formulation were regarded as controls). After that, 10.0 μL of MTT (5.0 mg/mL) was added into each well and incubated for 4.0 h. Finally, the medium was removed and 100.0 μL of DMSO was added. OD values were tested by microplate reader at 490 nm when the formazan precipitate was completely dissolved.

HepG2 [9] = assay: Cytotoxicity of TP 5-NPs in vitro (MTT); assay type: cell-based
Method: as §4

SMMC-7721 [10] = assay: Mitochondrial transmembrane potential assay (JC-1); assay type: cell-based; conditions: SMMC-7721, 30.0 μg/mL, 12 h
Method: (§5) In general, cell apoptosis is often accompanied by the transformation of mitochondrial transmembrane potential (ΔΨm). […] In order to verify whether TP 5-NPs can induce cancer cell apoptosis, ΔΨm was measured. Firstly, HepG2 and SMMC-7721 cell with a density of 2 × 10^5 cells per wells in 1.0 mL of medium all were seeded in a 12-well plate and incubated for 24 h. After that, 30.0 μg/mL of TP 5-NPs or TP 5 was added and cultured for another 12 h, in which wells containing normal medium without drugs were regarded as controls. Cells were washed using PBS for three times, incubated for 10 min in 10.0 μg/mL of JC-1 dye in the dark. The level of mitochondrial depolarization was observed by inverted fluorescent microscope and quantitatively analyzed by imaging software Image J [26].

HepG2 [11] = assay: Mitochondrial transmembrane potential assay (JC-1); assay type: cell-based; conditions: HepG2, 30.0 μg/mL, 12 h
Method: as §5

In the case of `Cc1cc2c(s1)C1=NC(=O)OC1(c1ccc(Cl)c(Cl)c1)CC2` (centres unmarked) [TP 5], the “antitumor activity compared with other TPs and paclitaxel” value (SMMC-7721 [1]; SMMC-7721, 30.0 μg/mL, 24 h) is reported as “higher activity than other TPs including paclitaxel”, the “antitumor activity compared with other TPs and paclitaxel” value (HepG2 [2]; HepG2, 30.0 μg/mL, 24 h) is reported as “higher activity than other TPs including paclitaxel” and the solubility ([3]; PBS containing 20.0% v/v ethanol, PBS pH 7.4 containing 20.0% v/v ethanol, read-out: Solubility in release (acceptor) medium) is reported as 88.2 µg/mL (≈ 250 µM). For the same compound, the solubility ([3]; aqueous buffer, thermodynamic from solid, PBS buffered solution (pH 7.4), 25 °C, read-out: Solubility) was 27.6 µg/mL (≈ 78.5 µM), the solubility ([3]; deionized water, 25 °C, water, thermodynamic from solid, read-out: Solubility) was 26.4 µg/mL (≈ 74.8 µM) and the solubility ([3]; dichloromethane, 25 °C, organic solvent or mixture, thermodynamic from solid, read-out: Solubility) was > 13000 µg/mL. The solubility ([3]; ethanol, 25 °C, organic solvent or mixture, thermodynamic from solid, read-out: Solubility) was 2480 µg/mL (≈ 7040 µM), the solubility ([3]; ethyl acetate, 25 °C, organic solvent or mixture, thermodynamic from solid, read-out: Solubility) was > 6800 µg/mL and the “Detected Concentration” value ([4]; 25.0 °C) was 201.18 µg/mL and 200.53 µg/mL and 199.88 µg/mL. For the same compound, the “Detected Concentration” value ([4]; 40.0 °C) was 202.66 µg/mL and 200.05 µg/mL and 202.01 µg/mL, the “Detected Concentration” value ([4]; 60.0 °C) was 202.28 µg/mL and 202.93 µg/mL and 201.19 µg/mL and the “thermal stability of structure” value ([4]; temperature increased to 60 °C, HPLC) was “stable”. For the same compound, the drug released [5] was ~ 20%, the “levels of ROS” value (SMMC-7721 [6]) was “higher than those of control cells” and the “levels of ROS” value (HepG2 [7]) was “higher than those of control cells”. For the same compound, the cytotoxicity (SMMC-7721 [8]; SMMC-7721, 10.0-50.0 μg/mL, 24, 48 and 72 h) was “dose and time-dependent cytotoxicity”, the “concentration above which cells were completely killed” value (SMMC-7721 [8]; SMMC-7721, MTT, 24, 48 and 72 h) was “exceeds 40.0 μg/mL” and the cytotoxicity (HepG2 [9]; HepG2, 10.0-50.0 μg/mL, 24, 48 and 72 h) was “dose and time-dependent cytotoxicity”. The “concentration above which cells were completely killed” value (HepG2 [9]; HepG2, MTT, 24, 48 and 72 h) was “exceeds 40.0 μg/mL”, the “JC-1 polymer/monomer (red/green) fluorescence ratio” value (SMMC-7721 [10]) was “lower than those of controls” and the “JC-1 polymer/monomer (red/green) fluorescence ratio” value (HepG2 [11]) was “lower than those of controls”.

Work on `CC(=O)O[C@H]1C(=O)[C@@]2(C)[C@H]([C@H](OC(=O)c3ccccc3)[C@]3(O)C[C@H](OC(=O)[C@H](O)[C@@H](NC(=O)c4ccccc4)c4ccccc4)C(C)=C1C3(C)C)[C@]1(OC(C)=O)CO[C@@H]1C[C@@H]2O` [paclitaxel, reference compound] yielded an IC50 (SMMC-7721 [1]; Homo sapiens, SMMC-7721, 24 h) of 35.3 µg/mL and an IC50 (HepG2 [2]; Homo sapiens, HepG2, 24 h) of 35.9 µg/mL.
